Measured values taken from patent publication US20140128385A1 (NOVARTIS AG, priority 2011, published 2014).
Counter-ions that a name gives are not always drawn.

target: T1, BACE-2 (Homo sapiens, UniProt Q9Y5Z0); experiment: assay for inhibition of BACE-2; type: biochemical
T1 construct: Recombinant BACE-2 (extracellular domain, expressed in baculovirus and purified using standard methods); made in house
T1 sequence (Q9Y5Z0 63-473 limits assumed): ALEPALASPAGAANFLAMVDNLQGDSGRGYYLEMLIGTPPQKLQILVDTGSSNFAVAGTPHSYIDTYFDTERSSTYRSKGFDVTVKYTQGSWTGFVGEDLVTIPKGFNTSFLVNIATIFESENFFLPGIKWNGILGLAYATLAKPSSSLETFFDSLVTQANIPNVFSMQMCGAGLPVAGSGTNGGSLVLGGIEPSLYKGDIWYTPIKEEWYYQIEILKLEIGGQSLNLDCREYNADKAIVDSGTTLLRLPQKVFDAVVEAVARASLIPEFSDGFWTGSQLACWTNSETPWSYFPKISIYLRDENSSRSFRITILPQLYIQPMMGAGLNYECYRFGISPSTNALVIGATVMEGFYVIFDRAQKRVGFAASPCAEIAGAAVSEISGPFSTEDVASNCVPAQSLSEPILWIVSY

IC50 [nM] | Structure (SMILES)
103 | [2H]C([2H])([2H])OCc1cc(OC([2H])([2H])[2H])cnc1C(=O)Nc1ccc(F)c([C@]2(C(F)F)COCC(N)=N2)c1 [Example 224]
27 | N#Cc1cnc(C(=O)Nc2ccc(F)c([C@]3(C(F)F)COCC(N)=N3)c2)c(N)c1 [Example 225]
90 | NC1=N[C@@](c2cc(NC(=O)c3ncc(C(F)F)cc3N)ccc2F)(C(F)F)COC1 [Example 226]
64 | [2H]C([2H])([2H])Oc1cnc(C(=O)Nc2ccc(F)c([C@]3(C(F)F)COCC(N)=N3)c2)c(C)c1 [Example 227]
61 | Cc1cc(C#N)cnc1C(=O)Nc1cc(F)c(F)c([C@]2(C(F)F)COCC(N)=N2)c1 [Example 228, 5-Cyano-3-methyl-pyridine-2-carboxylic acid [3-((R)-5-amino-3-difluoromethyl-3,6-dihydro-2H-[1,4]oxazin-3-yl)-4,5-difluoro-phenyl]-amide]
73 | [2H]C([2H])([2H])Oc1cnc(C(=O)Nc2cc(F)c(F)c([C@]3(C(F)F)COCC(N)=N3)c2)c(Cl)c1 [Example 229, 3-Chloro-5-trideuteromethoxy-pyridine-2-carboxylic acid [3-((R)-5-amino-3-difluoromethyl-3,6-dihydro-2H-[1,4]oxazin-3-yl)-4,5-difluoro-phenyl]-amide]
8 | [2H]c1nc(C(=O)Nc2cc(F)c(F)c([C@]3(C(F)F)COCC(N)=N3)c2)c(C([2H])([2H])[2H])c([2H])c1Cl [Example 230, 4,6-Dideutero-5-chloro-3-trideuteromethyl-pyridine-2-carboxylic acid [3-((R)-5-amino-3-difluoromethyl-3,6-dihydro-2H-[1,4]oxazin-3-yl)-4,5-difluoro-phenyl]-amide]
6 | C[C@@]1(c2cc(NC(=O)c3ncc(C#N)cc3Cl)ccc2F)CO[C@@](C)(C(F)(F)F)C(N)=N1 [Example 231, 3-Chloro-5-cyano-pyridine-2-carboxylic acid [3-((3R,6R)-5-amino-3,6-dimethyl-6-trifluoromethyl-3,6-dihydro-2H-[1,4]oxazin-3-yl)-4-fluoro-phenyl]-amide hydrochloride]
7 | COc1cnc(C(=O)Nc2ccc(F)c([C@]3(C)CO[C@@](C)(C(F)(F)F)C(N)=N3)c2)c(Cl)c1 [Example 232, 3-Chloro-5-methoxy-pyridine-2-carboxylic acid [3-((3R,6R)-5-amino-3,6-dimethyl-6-trifluoromethyl-3,6-dihydro-2H-[1,4]oxazin-3-yl)-4-fluoro-phenyl]-amide hydrochloride]
2 | Cc1cc(Cl)cnc1C(=O)Nc1ccc(F)c([C@]2(C)CO[C@@](C)(C(F)(F)F)C(N)=N2)c1 [Example 234, 5-Chloro-3-methyl-pyridine-2-carboxylic acid [3-((3R,6R)-5-amino-3,6-dimethyl-6-trifluoromethyl-3,6-dihydro-2H-[1,4]oxazin-3-yl)-4-fluoro-phenyl]-amide hydrochloride]
2 | C[C@@]1(c2cc(NC(=O)c3ncc(Cl)cc3F)ccc2F)CO[C@@](C)(C(F)(F)F)C(N)=N1 [Example 235, 5-Chloro-3-fluoro-pyridine-2-carboxylic acid [3-((3R,6R)-5-amino-3,6-dimethyl-6-trifluoromethyl-3,6-dihydro-2H-[1,4]oxazin-3-yl)-4-fluoro-phenyl]-amide hydrochloride]
6 | Cl.[2H]C([2H])([2H])Oc1cnc(C(=O)Nc2ccc(F)c([C@]3(C)CO[C@@](C)(C(F)(F)F)C(N)=N3)c2)c(Cl)c1 [Example 236, 3-Chloro-5-trideutero-methoxy-pyridine-2-carboxylic acid [3-((3R,6R)-5-amino-3,6-dimethyl-6-trifluoromethyl-3,6-dihydro-2H-[1,4]oxazin-3-yl)-4-fluoro-phenyl]-amide hydrochloride]
7 | Cc1nc(C(=O)Nc2ccc(F)c([C@]3(C)CO[C@@](C)(C(F)(F)F)C(N)=N3)c2)c(C)o1 [Example 237, 2,5-Dimethyl-oxazole-4-carboxylic acid [3-((3R,6R)-5-amino-3,6-dimethyl-6-trifluoromethyl-3,6-dihydro-2H-[1,4]oxazin-3-yl)-4-fluoro-phenyl]-amide hydrochloride]
12 | Cc1cc(OC(F)F)cnc1C(=O)Nc1ccc(F)c([C@]2(C)CO[C@@](C)(C(F)(F)F)C(N)=N2)c1 [Example 238]
15 | C#CCOc1cnc(C(=O)Nc2ccc(F)c([C@]3(C)CO[C@@](C)(C(F)(F)F)C(N)=N3)c2)c(N)n1 [Example 239]
8 | Cc1cc(C(F)F)cnc1C(=O)Nc1ccc(F)c([C@]2(C)CO[C@@](C)(C(F)(F)F)C(N)=N2)c1 [Example 241, 5-Difluoromethyl-3-methyl-pyridine-2-carboxylic acid [3-((3R,6R)-5-amino-3,6-dimethyl-6-trifluoromethyl-3,6-dihydro-2H-[1,4]oxazin-3-yl)-4-fluoro-phenyl]-amide hydrochloride]
11 | C[C@@]1(c2cc(NC(=O)c3ncc(C(F)F)nc3N)ccc2F)CO[C@@](C)(C(F)(F)F)C(N)=N1 [Example 242, 3-Amino-5-difluoromethyl-pyrazine-2-carboxylic acid [3-((3R,6R)-5-amino-3,6-dimethyl-6-trifluoromethyl-3,6-dihydro-2H-[1,4]oxazin-3-yl)-4-fluoro-phenyl]-amide]
11 | C[C@@]1(c2cc(NC(=O)c3ncc(C(F)F)cc3N)ccc2F)CO[C@@](C)(C(F)(F)F)C(N)=N1 [Example 243, 3-Amino-5-difluoromethyl-pyridine-2-carboxylic acid [3-((3R,6R)-5-amino-3,6-dimethyl-6-trifluoromethyl-3,6-dihydro-2H-[1,4]oxazin-3-yl)-4-fluoro-phenyl]-amide]
9 | COc1cc(C(F)F)c(C(=O)Nc2ccc(F)c([C@]3(C)CO[C@@](C)(C(F)(F)F)C(N)=N3)c2)nn1 [Example 244, 4-Difluoromethyl-6-methoxy-pyridazine-3-carboxylic acid [3-((3R,6R)-5-amino-3,6-dimethyl-6-trifluoromethyl-3,6-dihydro-2H-[1,4]oxazin-3-yl)-4-fluoro-phenyl]-amide hydrochloride]
13 | [2H]C([2H])([2H])OCc1cc(C#N)cnc1C(=O)Nc1ccc(F)c([C@]2(C)CO[C@@](C)(C(F)(F)F)C(N)=N2)c1 [Example 245, 5-Cyano-3-trideuteromethoxymethyl-pyridine-2-carboxylic acid [3-((3R,6R)-5-amino-3,6-dimethyl-6-trifluoromethyl-3,6-dihydro-2H-[1,4]oxazin-3-yl)-4-fluoro-phenyl]-amide]
8 | C[C@@]1(c2cc(NC(=O)c3ncc(C(F)F)cc3Cl)ccc2F)CO[C@@](C)(C(F)(F)F)C(N)=N1 [Example 246, 3-Chloro-5-difluormethyl-pyridine-2-carboxylic acid [3-((3R,6R)-5-amino-3,6-dimethyl-6-trifluoromethyl-3,6-dihydro-2H-[1,4]oxazin-3-yl)-4-fluoro-phenyl]-amide-amide]
44 | [2H]C([2H])([2H])OC([2H])([2H])c1cc2c(Cl)c[nH]c2nc1C(=O)Nc1ccc(F)c([C@]2(C)CO[C@@](C)(C(F)(F)F)C(N)=N2)c1 [Example 247, 3-Chloro-5-trideuteromethoxy-dideuteromethyl-1H-pyrrolo[2,3-b]pyridine-6-carboxylic acid [3-((3R,6R)-5-amino-3,6-dimethyl-6-trifluoromethyl-3,6-dihydro-2H-[1,4]oxazin-3-yl)-4-fluoro-phenyl]-amide]
